Experimental findings from patent US9872861B2, “Methods of treatment using selective Bcl-2 inhibitors” (AbbVie Inc., priority 2010, dated 2018) are described below.

Where two headings read alike, the source gives them in different places. Marks after values point to notes of the source that are not given here.

One may read the EC50 as the concentration giving half of the maximal effect. High values mean lower potency in that assay, low ones higher potency in that assay.

One assay deals with FL5.12-Bcl-2 cells. Briefly: Cellular efficacy in FL5.12 cells dependent on Bcl-2. In kind it is cell-based, murine. To be noted: Mus musculus, 3% FBS.
The subject of the next assay is RS4;11 cells. Description: Cellular efficacy in Bcl-2 dependent tumor cell line RS4;11. The class given is cell-based, human. The note with it: Homo sapiens, RS4-11; 10% HS.
A further assay deals with H146 cells. Briefly: Cellular efficacy in Bcl-XL dependent tumor cell line H146. In kind it is cell-based. To be noted: Homo sapiens, NCI-H146; 10% HS.
Another assay has as its system FL5.12-Bcl-XL cells. Briefly: Cellular efficacy in FL5.12 cells dependent on Bcl-XL. In kind it is cell-based, murine. To be noted: Mus musculus, 3% FBS.
Another assay has as its target Bcl-XL (Homo sapiens, UniProt Q07817). Description: TR FRET competitive binding affinity, Bcl-XL. To be noted: read-out: Target Affinity TR FRET, Bcl-XL. The protocol:
(§1) A comparison of the binding affinity for each of the compounds was performed to determine target affinity, as measured by Time-Resolved Fluorescence Resonance Energy Transfer (TR FRET).

Assay [1] relates to peripheral blood immune cells. Description: Peripheral blood lymphocytes in C57BL/6 mice, Cell Dyn hematology analyzer. The class given is in vivo. To be noted: for inhibition in vivo at 100 mg/kg: Mus musculus, Lymphocyte. How it is done: The effect of the Bcl-2 selective/Bcl-XL sparing compounds on peripheral blood immune cells was also evaluated in C57BL/6 mice. Mice were treated four days with individual compounds (100 mg/kg, orally every day) and cell numbers were measured with a Cell Dyn hematology analyzer.

Another assay deals with Mcl-1 (Homo sapiens, UniProt Q07820). Description: TR FRET competitive binding affinity, Mcl-1. To be noted: read-out: Target Affinity TR FRET, Mcl-1. The protocol: as §1
Sequence of Mcl-1 (Q07820 whole entry): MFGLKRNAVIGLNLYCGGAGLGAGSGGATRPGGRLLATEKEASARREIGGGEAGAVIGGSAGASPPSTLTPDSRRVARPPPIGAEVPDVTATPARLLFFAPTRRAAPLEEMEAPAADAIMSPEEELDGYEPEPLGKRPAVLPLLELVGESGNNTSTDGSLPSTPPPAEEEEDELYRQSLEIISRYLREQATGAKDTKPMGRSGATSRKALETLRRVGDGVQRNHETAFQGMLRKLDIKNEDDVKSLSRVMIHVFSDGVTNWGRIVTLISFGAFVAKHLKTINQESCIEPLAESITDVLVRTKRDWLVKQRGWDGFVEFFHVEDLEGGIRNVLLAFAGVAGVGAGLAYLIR
For orientation: TR-FRET usually uses a lanthanide donor and a delayed reading to cut background.

The target in the next assay is Bcl-2 (Homo sapiens, UniProt P10415). Briefly: TR FRET competitive binding affinity, Bcl-2. The note with it: read-out: Target Affinity TR FRET, Bcl-2. How it is done: as §1
Sequence of Bcl-2 (P10415 whole entry): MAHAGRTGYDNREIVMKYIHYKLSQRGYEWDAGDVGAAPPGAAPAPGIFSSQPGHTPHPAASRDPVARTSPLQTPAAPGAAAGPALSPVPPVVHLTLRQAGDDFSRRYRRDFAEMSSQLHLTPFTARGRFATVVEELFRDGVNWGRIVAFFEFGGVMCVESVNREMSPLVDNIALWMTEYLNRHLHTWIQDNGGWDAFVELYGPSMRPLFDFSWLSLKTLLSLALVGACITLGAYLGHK
The subject of assay [2] is spontaneous (NZB×NZW)F1 murine model of lupus. Briefly: Spontaneous (NZB×NZW)F1 murine model of lupus: proteinuria, survival, lymphopenia. To be noted: Week 47, 100 mg/kg daily oral. The class given is in vivo, (NZB×NZW)F1 mice. From the text: (See Liu, K. and C. Mohan, What do mouse models teach us about human SLE? Clin Immunol, 2006. 119(2): p. 123-30) This model has been well-characterized with respect to the patho-physiological changes analogous to those of human SLE. […] Renal histopathological changes include severe glomerulonephritis, mesangial and peripheral proliferative changes, capillary membrane thickening, tubular atrophy, and infiltration of lymphocytes and monocytes/macrophages as in the majority of human SLE patients. These changes result in disruption of kidney function as evidenced by severe proteinuria (PU) greater than 300 mg/dL as measured by albumin sticks, followed by mortality as measured by survival. […] (See Gelfand, M. C. and A. D. Steinberg, Therapeutic studies in NZB-W mice. II. Relative efficacy of azathioprine, cyclophosphamide and methylprednisolone. Arthritis Rheum, 1972. 15(3): p. 247-52; and Ramos, M. A., et al., Modulation of autoantibody production by mycophenolate mofetil: effects on the development of SLE in (NZB×NZW)F1 mice. Nephrol Dial Transplant, 2003. 18(5): p. 878-83)
(NZB×NZW)F1 females were purchased from The Jackson Laboratory (Bar Harbor, Me., USA) and maintained in a conventional animal housing facility throughout the experiment. […] Proteinuria (PU) and survival were monitored weekly, followed by biweekly measurement of lymphocyte and platelet counts, and anti-ds DNA production. PK parameters were also measured throughout the study. Impact on IgG deposition and renal pathology were assessed at the conclusion of the study. Severe PU was defined by two consecutive weekly measurements of PU 300 mg/dl using Albustix test strips (VWR). When mice became moribund, they were sacrificed according to Institutional Animal Care and Use Committee protocols. PU and survival data were presented as Kaplan-Meyer survival curves using Graphpad Prism software and group differences were considered significant at the level of p<0.05. Histologic scores were analyzed using ANOVA analysis. Anti-ds DNA were analyzed using one-way ANOVA analysis and Tukey post-test.

For assay [3], the system named is IFNα-induced (NZB×NZW)F1 lupus model. Briefly: IFNα-induced (NZB×NZW)F1 lupus model: proteinuria, survival, lymphopenia. To be noted: 100 mg/kg/day orally. The class given is in vivo, (NZB×NZW)F1 mice. The protocol:
Treatment was initiated in a late-prophylactic mode (7 days after IFNα adenovirus). […] All treatment groups were administered treatment 7 days after adenovirus injection. Following adenovirus injection, mice were monitored weekly for proteinuria (PU) using Albustix test strips (VWR). Severe PU was defined by consecutive weekly measurements of PU≧300 mg/dl. When mice became moribund, they were sacrificed according to Institutional Animal Care and Use Committee protocols.

Where [4] appears, read: 24 h, 1 oral dose of 100 mg/kg, read-out: Day 1 % Reduction vs. Vehicle.
[5] abbreviates: 96 h, 4 oral doses of 100 mg/kg, read-out: Day 4 % Reduction vs. Vehicle.

Sequence of Bcl-XL (Q07817 whole entry): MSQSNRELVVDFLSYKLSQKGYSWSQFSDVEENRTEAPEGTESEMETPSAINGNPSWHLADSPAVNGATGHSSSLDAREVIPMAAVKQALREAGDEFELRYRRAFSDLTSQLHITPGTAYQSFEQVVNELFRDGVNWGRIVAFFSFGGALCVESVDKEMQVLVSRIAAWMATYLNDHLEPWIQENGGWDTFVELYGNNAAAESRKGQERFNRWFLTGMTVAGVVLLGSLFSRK

In the case of `CC1(C)CCC(CN2CCN(c3ccc(C(=O)NS(=O)(=O)c4ccc(N[C@H]5CC[C@H](N6CCOCC6)CC5)c([N+](=O)[O-])c4)c(Oc4cnc5[nH]ccc5c4)c3)CC2)=C(c2ccc(Cl)cc2)C1` [Compound 4, Trans-4-(4-{[2-(4-chlorophenyl)-4,4-dimethylcyclohex-1-en-1-yl]methyl}piperazin-1-yl)-N-({4-[(4-morpholin-4-ylcyclohexyl)amino]-3-nitrophenyl}sulfonyl)-2-(1H-pyrrolo[2,3-b]pyridin-5-yloxy)benzamide], the EC50 in the assay on FL5.12-Bcl-2 cells was 1.2 nM; in the assay on RS4;11 cells it was 32 nM; in the assay with H146 cells it was greater than 5000 nM; in the assay with FL5.12-Bcl-XL cells, 70 nM. At Bcl-XL, the Ki turned out to be 7.2 nM. In assay [1] (1 oral dose of 100 mg/kg), the “Day 1 Lymphocytes” value is 2.62 ×10^6. Also, in [1] (4 oral doses of 100 mg/kg), the “Day 4 lymphocytes” value is given as 1.72 ×10^6. Moreover, the results for the inhibition in vivo at 100 mg/kg in assay [1] (setting [4]) and in [1] (setting [5]) were 57% and 73%, respectively.

Turning to `CC1(C)CCC(CN2CCN(c3ccc(C(=O)NS(=O)(=O)c4ccc(NC[C@H]5CN(C6CC6)CCO5)c([N+](=O)[O-])c4)c(Oc4cnc5[nH]ccc5c4)c3)CC2)=C(c2ccc(Cl)cc2)C1` [Compound 7, 4-(4-{[2-(4-chlorophenyl)-4,4-dimethylcyclohex-1-en-1-yl]methyl}piperazin-1-yl)-N-{[4-({[(2S)-4-cyclopropylmorpholin-2-yl]methyl}amino)-3-nitrophenyl]sulfonyl}-2-(1H-pyrrolo[2,3-b]pyridin-5-yloxy)benzamide], the EC50 turned out to be 2.7 nM in the assay on RS4;11 cells and 926 nM with H146 cells. Also, the Ki at Bcl-XL was determined as 9.4 nM. The “Day 1 Lymphocytes” value in assay [1] (1 oral dose of 100 mg/kg) is 0.89 ×10^6. Also, the “Day 4 lymphocytes” value in assay [1] (4 oral doses of 100 mg/kg) was 0.95 ×10^6. Besides, the inhibition in vivo at 100 mg/kg in [1] (setting [4]) and in assay [1] (setting [5]) was 85% each time.

Turning to `CN1CCN(Nc2ccc(S(=O)(=O)NC(=O)c3ccc(N4CCN(CC5=C(c6ccc(Cl)cc6)CC(C)(C)CC5)CC4)cc3Oc3cnc4[nH]ccc4c3)cc2[N+](=O)[O-])CC1` [Compound 10, 4-(4-{[2-(4-chlorophenyl)-4,4-dimethylcyclohex-1-en-1-yl]methyl}piperazin-1-yl)-N-({4-[(4-methylpiperazin-1-yl)amino]-3-nitrophenyl}sulfonyl)-2-(1H-pyrrolo[2,3-b]pyridin-5-yloxy)benzamide], the EC50 in the assay on FL5.12-Bcl-2 cells worked out at 12 nM; in the assay with RS4;11 cells, 31 nM; in the assay on H146 cells it was 2900 nM; with FL5.12-Bcl-XL cells it was 273 nM. The Ki was 21 nM at Bcl-XL and greater than 440 nM at Mcl-1. In addition, the “Day 1 Lymphocytes” value in assay [1] (1 oral dose of 100 mg/kg) is on record as 2.25 ×10^6. Also, the “Day 4 lymphocytes” value in assay [1] (4 oral doses of 100 mg/kg) was 2.48 ×10^6. Besides, the inhibition in vivo at 100 mg/kg in assay [1] (setting [4]) was found to be 65%; in assay [1] (setting [5]), 71%.

In the case of `CC1(C)CCC(CN2CCN(c3ccc(C(=O)NS(=O)(=O)c4ccc(OCC5(F)CCN(C6COC6)CC5)c(Cl)c4)c(Oc4cnc5[nH]ccc5c4)c3)CC2)=C(c2ccc(Cl)cc2)C1` [Compound 11, N-[(3-chloro-4-{[4-fluoro-1-(oxetan-3-yl)piperidin-4-yl]methoxy}phenyl)sulfonyl]-4-(4-{[2-(4-chlorophenyl)-4,4-dimethylcyclohex-1-en-1-yl]methyl}piperazin-1-yl)-2-(1H-pyrrolo[2,3-b]pyridin-5-yloxy)benzamide], the values for the EC50 in the assay on RS4;11 cells and with H146 cells were 12 nM and 2990 nM, respectively. Further, on Bcl-XL, the Ki came to 12 nM. In addition, in assay [1] (1 oral dose of 100 mg/kg), the “Day 1 Lymphocytes” value was 1.76 ×10^6. In addition, in [1] (4 oral doses of 100 mg/kg), the “Day 4 lymphocytes” value is given as 1.71 ×10^6. The inhibition in vivo at 100 mg/kg in assay [1] (setting [4]) came out at 73%; in [1] (setting [5]), 80%.

Regarding `CC1(C)CCC(CN2CCN(c3ccc(C(=O)NS(=O)(=O)c4cnc(OC[C@H]5CC[C@H](O)CC5)c(Cl)c4)c(Oc4cc(F)cc5[nH]ncc45)c3)CC2)=C(c2ccc(Cl)cc2)C1` [Compound 14, N-({5-chloro-6-[(trans-4-hydroxycyclohexyl)methoxy]pyridin-3-yl}sulfonyl)-4-(4-{[2-(4-chlorophenyl)-4,4-dimethylcyclohex-1-en-1-yl]methyl}piperazin-1-yl)-2-[(6-fluoro-1H-indazol-4-yl)oxy]benzamide], the 50% effective concentration (EC50) amounted to 22 nM with RS4;11 cells and 3540 nM in the assay with H146 cells. Moreover, the Ki on Bcl-XL is 20 nM; on Bcl-2 it was less than 0.01 nM. The “Day 1 Lymphocytes” value in assay [1] (1 oral dose of 100 mg/kg) is on record as 3.02 ×10^6. Besides, the “Day 4 lymphocytes” value in assay [1] (4 oral doses of 100 mg/kg) is 2.33 ×10^6. The inhibition in vivo at 100 mg/kg was 54% in [1] (setting [4]) and 73% in assay [1] (setting [5]).

For the compound `CC1(C)CCC(CN2CCN(c3ccc(C(=O)NS(=O)(=O)c4ccc(OCC5(F)CCOCC5)c(Cl)c4)c(Oc4cnc5[nH]ccc5c4)c3)CC2)=C(c2ccc(Cl)cc2)C1` [Compound 15, N-({3-chloro-4-[(4-fluorotetrahydro-2H-pyran-4-yl)methoxy]phenyl}sulfonyl)-4-(4-{[2-(4-chlorophenyl)-4,4-dimethylcyclohex-1-en-1-yl]methyl}piperazin-1-yl)-2-(1H-pyrrolo[2,3-b]pyridin-5-yloxy)benzamide], the EC50 in the assay on RS4;11 cells was 35 nM; in the assay on H146 cells, greater than 5000 nM. In addition, the Ki on Bcl-XL was 61 nM. Further, in assay [1] (1 oral dose of 100 mg/kg), the “Day 1 Lymphocytes” value is listed as 1.85 ×10^6. For the same compound, the “Day 4 lymphocytes” value in assay [1] (4 oral doses of 100 mg/kg) was 1.65 ×10^6. Besides, the inhibition in vivo at 100 mg/kg in assay [1] (setting [4]) turned out to be 72%; in assay [1] (setting [5]), 81%.

For `CC1(C)CCC(CN2CCN(c3ccc(C(=O)NS(=O)(=O)c4ccc(OCC5(F)CCOCC5)c([N+](=O)[O-])c4)c(Oc4cnc5[nH]ccc5c4)c3)CC2)=C(c2ccc(Cl)cc2)C1` [Compound 16, 4-(4-{[2-(4-chlorophenyl)-4,4-dimethylcyclohex-1-en-1-yl]methyl}piperazin-1-yl)-N-({4-[(4-fluorotetrahydro-2H-pyran-4-yl)methoxy]-3-nitrophenyl}sulfonyl)-2-(1H-pyrrolo[2,3-b]pyridin-5-yloxy)benzamide], the concentration for a half-maximal effect (EC50) with FL5.12-Bcl-2 cells came to 0.7 nM; in the assay on RS4;11 cells, 2.1 nM; in the assay on H146 cells, 3930 nM; in the assay with FL5.12-Bcl-XL cells, 31 nM. Also, on Bcl-XL, the Ki was 15 nM. The “Day 1 Lymphocytes” value in assay [1] (1 oral dose of 100 mg/kg) is 1.77 ×10^6. For the same compound, the “Day 4 lymphocytes” value in assay [1] (4 oral doses of 100 mg/kg) was 1.99 ×10^6. Also, the inhibition in vivo at 100 mg/kg amounted to 73% in assay [1] (setting [4]) and 77% in assay [1] (setting [5]).

In the case of `COc1c(C)c2c(c(O)c1C/C=C(\C)CCC(=O)OCCN1CCOCC1)C(=O)OC2` [MMF, mycophenolate mofetil, reference compound], in assay [2], the “% Mice with PU < 300 mg/dL” value was 94* % and the “% Survival” value is recorded as 100* %. Further, in assay [3], the “% Mice with PU < 300 mg/dL” value is 40* % and the “% Survival” value was 72* %.
